Data: article PMC11284800 (Journal of Medicinal Chemistry, 2024)
Like-named read-outs stand apart in the source and are kept apart here.

Experiments:
hCB1R [1] = biological target: T1, hCB1R (Homo sapiens, UniProt P21554); assay: HTRF cAMP assay, agonist / inverse agonist mode; assay type: cell-based; parameters: expressed in transfected cells; host or cells: CHO; settings: for Functional activity at CB1R (in words): CB1R cAMP HTRF assay
human CB2R = biological target: T2, human CB2R (Homo sapiens, UniProt P34972); assay: [3H]CP55,940 displacement assay on CHO membranes, CB2R; assay type: binding; settings: for Ki: [3H]CP55,940 displacement; for hCB2R % displacement at 10 µM: [3H]CP55,940 displacement at 10 µM compound, ± SEM
T2 construct: host or cells: CHO-K1 (CHOK1hCB2_bgal)

hCB1R [2] = biological target: T1, hCB1R; assay: [3H]CP55,940 displacement assay on CHO membranes, CB1R; assay type: binding; parameters: host or cells: CHO-K1 (CHOK1hCB1_bgal); settings: for Ki: [3H]CP55,940 displacement
CB2R = settings: cited from earlier work
CB1R [3] = settings: cited from earlier work
CB1R [4] = test system: CB1R; parameters: method as in PMID 8070571, PMID 27240274, PMID 24175572; settings: cited from earlier work
hCB1R [5] = biological target: T1, hCB1R; assay: HTRF cAMP assay, antagonist mode (forskolin with CP55,940); settings: for Emax: read-out: Variation of Emax
Description: The homogeneous time-resolved fluorescence (HTRF) cAMP assay was conducted following the manufacturer’s protocol for the cAMP-Gs Dynamic kit. […] After 15 min, reactions were stopped by the 1× cAMP-d2 conjugate in lysis buffer (5 μL/well), followed by 1× anti-cAMP cryptate conjugate in lysis buffer (5 μL/well). Following a 1 h incubation at room temperature, the plates were read in a Revvity Envision reader for time-resolved fluorescence resonance energy transfer detection at 620 and 665 nm. The HTRF ratio versus compound concentrations was plotted using Prism 8.1 (GraphPad). HTRF ratio = (signal 665 nm/signal 620 nm) × 10^4.

hCB1R [6] = settings: cited from earlier work
[7] = Photophysical characterization in PBS; assay type: physicochemical; settings: PBS pH 7.4
[8] = hCB1R Ki, CHO membranes stably expressing human CB1R, means of three experiments
[9] = CHO membranes stably expressing human CB2R, means of three experiments, read-out: hCB2R Ki
[10] = hCB2R Ki, CHO membranes stably expressing human CB2R, means of three experiments

T1 sequence (P21554 whole entry): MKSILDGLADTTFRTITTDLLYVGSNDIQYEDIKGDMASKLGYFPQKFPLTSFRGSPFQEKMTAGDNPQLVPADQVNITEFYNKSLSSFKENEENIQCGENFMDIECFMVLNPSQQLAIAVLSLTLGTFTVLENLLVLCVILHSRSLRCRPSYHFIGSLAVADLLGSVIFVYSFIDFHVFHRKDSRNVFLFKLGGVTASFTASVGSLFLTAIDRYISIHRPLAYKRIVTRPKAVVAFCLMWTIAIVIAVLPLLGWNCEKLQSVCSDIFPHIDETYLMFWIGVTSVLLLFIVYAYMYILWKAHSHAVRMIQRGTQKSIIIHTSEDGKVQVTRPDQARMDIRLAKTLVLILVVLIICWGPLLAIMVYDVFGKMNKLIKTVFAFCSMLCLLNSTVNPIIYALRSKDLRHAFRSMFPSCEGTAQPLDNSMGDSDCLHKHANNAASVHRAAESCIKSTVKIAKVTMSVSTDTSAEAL
T2 sequence (P34972 whole entry): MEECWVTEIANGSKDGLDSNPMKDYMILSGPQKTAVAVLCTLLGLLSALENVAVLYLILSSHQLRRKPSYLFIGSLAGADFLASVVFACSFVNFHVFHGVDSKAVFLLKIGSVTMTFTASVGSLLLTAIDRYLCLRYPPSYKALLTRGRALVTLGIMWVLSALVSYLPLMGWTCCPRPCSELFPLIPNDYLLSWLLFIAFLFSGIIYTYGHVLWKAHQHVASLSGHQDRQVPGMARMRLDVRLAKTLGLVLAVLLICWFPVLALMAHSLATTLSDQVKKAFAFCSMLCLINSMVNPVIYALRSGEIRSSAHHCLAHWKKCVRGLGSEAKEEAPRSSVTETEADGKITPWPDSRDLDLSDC

Row | Structure (SMILES) | Emax (hCB1R [1]) | IC50 (hCB1R [1]) | Functional activity at CB1R (in words) (hCB1R [1]) | Ki (human CB2R; hCB2R pKi ± SEM, CHO membranes) | Ki (hCB1R [2]; [8]) | Ki (human CB2R; [9]) | IC50 (hCB1R [5]) | Emax (hCB1R [5]) | further results
1 | CCOC(=O)C(CC)(CC)NC(=O)c1cnc(OCCOC)c(-c2ccc(Cl)cc2)n1 [Compound 18, Ethyl 2-(6-(4-Chlorophenyl)-5-(2-methoxyethoxy)pyrazine-2-carboxamido)-2-ethylbutanoate] | -41% | 0.191 µM | inverse agonists | 0.0112 µM | 0.817 µM |  |  |  | 
2 | Cc1c(C(=O)NC2CCCCC2)cc(-c2cc(C(F)(F)F)ccc2C(F)(F)F)n1CC1CCCO1 (stereo not drawn) [Compound 5] |  |  |  |  |  |  |  |  | IC50 (CB2R): > 0.08 µM; IC50 (CB1R [3]): 0.008 µM; Functional profile at CB1R (in words) (CB1R [4]): inverse agonist
3 | CCC(CC)(NC(=O)c1cc(-c2cc(C(F)(F)F)ccc2C(F)(F)F)n(C[C@H]2CCCO2)c1C)C(=O)NCCOCCOCCNC(=O)OC(C)(C)C [Compound 22b, tert-Butyl (R)-(1-(5-(2,5-Bis(trifluoromethyl)phenyl)-2-methyl-1-((tetrahydrofuran-2-yl)methyl)-1H-pyrrol-3-yl)-3,3-diethyl-1,4-dioxo-8,11-dioxa-2,5-diazatridecan-13-yl)carbamate] | -69% |  | inverse agonist |  |  | > 10 µM | 1 µM | -105% | IC50 (hCB1R [1]; read-out: Functional activity (cAMP assay) IC50): 0.131 µM; hCB2R % displacement at 10 µM (human CB2R): 22 ± 9%; Ki (hCB1R [2]; CHO membranes stably expressing human CB1R, means of three experiments, read-out: hCB1R Ki): 0.811 µM
4 | CCOC(=O)C(CC)(CC)NC(=O)c1cnc(OCC2CC2)c(-c2ccc(F)cc2)c1 [Compound 17, Ethyl 2-(6-(Cyclopropylmethoxy)-5-(4-fluorophenyl)nicotinamido)-2-ethylbutanoate] | -48% | 0.0436 µM | inverse agonists | 0.00646 µM | 0.308 µM |  | 3.98 µM | -116% | Ki (human CB2R; [10]): 0.006 µM
5 | CCCCCCC(C)(C)c1cc(O)c2c(c1)OC(C)(C)c1ccc(CNCCCCCCNC(=O)CCCCCC[N+]3=C(/C=C/C=C/C=C4/N(C)c5ccc(S(=O)(=O)O)cc5C4(C)C)C(C)(C)c4cc(S(=O)(=O)[O-])ccc43)cc1-2 [ABP511] |  |  |  |  |  |  |  |  | Ki (hCB1R [6]): 0.0035 µM
6 | CCOC(=O)C(CC)(CC)NC(=O)c1nn(-c2ccc(Cl)cc2Cl)c(-c2ccc(Cl)cc2)c1C [Compound 15, Ethyl 2-(5-(4-Chlorophenyl)-1-(2,4-dichlorophenyl)-4-methyl-1H-pyrazole-3-carboxamido)-2-ethylbutanoate] | -42% | 0.0132 µM | inverse agonists | 0.00851 µM |  |  |  |  | Ki (human CB2R; [10]): 0.009 µM; Ki (hCB1R [2]; hCB1R pKi ± SEM, CHO membranes): 0.0282 µM
7 | O=C(NC1CCCCC1O)c1cnc(OCC2CC2)c(-c2ccc(F)cc2)c1 (stereo not drawn) [Compound 8] |  |  |  |  |  |  |  |  | Ki (CB2R): > 10 µM; Ki (CB1R [3]): 0.0428 µM; Functional profile at CB1R (in words) (CB1R [4]): inverse agonist
8 | CCOC(=O)C(CC)(CC)NC(=O)c1cc(-c2cc(C(F)(F)F)ccc2C(F)(F)F)n(C[C@H]2CCCO2)c1C [Compound 14, Ethyl (R)-2-(5-(2,5-Bis(trifluoromethyl)phenyl)-2-methyl-1-((tetrahydrofuran-2-yl)methyl)-1H-pyrrole-3-carboxamido)-2-ethylbutanoate] | -46% | 0.00148 µM | inverse agonists |  |  | 0.306 µM | 0.01 µM | -107% | Ki (hCB1R [2]; hCB1R pKi ± SEM, CHO membranes): 0.011 µM; Ki(CB2R)/Ki(CB1R) selectivity (hCB1R [2]; radioligand binding Ki ratio): 28 fold
9 | CCC(CC)(NC(=O)c1cc(-c2cc(C(F)(F)F)ccc2C(F)(F)F)n(C[C@H]2CCCO2)c1C)C(=O)NCCOCCOCCNc1ccc([N+](=O)[O-])c2nonc12 [Compound 28, (R)-5-(2,5-Bis(trifluoromethyl)phenyl)-2-methyl-N-(3-((2-(2-(2-((7-nitrobenzo[c][1,2,5]oxadiazol-4-yl)amino)ethoxy)ethoxy)ethyl)carbamoyl)pentan-3-yl)-1-((tetrahydrofuran-2-yl)methyl)-1H-pyrrole-3-carboxamide] | -62% | 0.0166 µM | inverse agonists |  | 0.097 µM | > 10 µM | 0.398 µM | -97% | hCB2R % displacement at 10 µM (human CB2R): 41 ± 2%; Abs (absorbance maximum) [7]: 475 nm; Em (emission maximum) [7]: 550 nm; QY (quantum yield) [7]: 1.3%; Ki(CB2R)/Ki(CB1R) (hCB1R [2]; radioligand binding Ki ratio): > 103
